According to patent US7981907B2 (dated 2011):

SMILES | melting point [°C]
CC(=O)c1ccc(-c2ccccc2C[S+]([O-])CC(N)=O)cc1 (stereo not drawn) | 155 to 160
Cc1ccc(C[S+]([O-])CC(N)=O)cc1-c1ccccc1 (stereo not drawn) | 153
Cc1noc(C)c1-c1cccc(C[S+]([O-])CC(N)=O)c1 (stereo not drawn) | 34 to 43
